Measurements taken from PMC3384000, “TCN 201 selectively blocks GluN2A-containing NMDARs in a GluN1 co-agonist dependent but non-competitive manner” (Neuropharmacology, 2012).
Where two headings read alike, the source gives them in different places.

Legend:
GluN1/GluN2A NMDARs [1] = target: T1, GluN1/GluN2A NMDARs (Rattus norvegicus, UniProt P35439+Q00959); experiment: TEVC recordings of NMDAR currents from Xenopus laevis oocytes expressing GluN1/GluN2A; assay type: cell-based; conditions: for inhibition of GluN1/GluN2A NMDAR-mediated currents: antagonist 10 μM; for inhibition at 10 µM: TCN 201 10 μM; for IC50: minimum unconstrained, read-out: IC50 (concentration giving 50% of the maximal achievable inhibition)
T1 construct: expressed in transfected cells; host or cells: Xenopus laevis oocytes injected with cRNA (GluN1:GluN2 1:1)
T1 sequence (Q00959 20-1464 limits assumed, other chains not shown): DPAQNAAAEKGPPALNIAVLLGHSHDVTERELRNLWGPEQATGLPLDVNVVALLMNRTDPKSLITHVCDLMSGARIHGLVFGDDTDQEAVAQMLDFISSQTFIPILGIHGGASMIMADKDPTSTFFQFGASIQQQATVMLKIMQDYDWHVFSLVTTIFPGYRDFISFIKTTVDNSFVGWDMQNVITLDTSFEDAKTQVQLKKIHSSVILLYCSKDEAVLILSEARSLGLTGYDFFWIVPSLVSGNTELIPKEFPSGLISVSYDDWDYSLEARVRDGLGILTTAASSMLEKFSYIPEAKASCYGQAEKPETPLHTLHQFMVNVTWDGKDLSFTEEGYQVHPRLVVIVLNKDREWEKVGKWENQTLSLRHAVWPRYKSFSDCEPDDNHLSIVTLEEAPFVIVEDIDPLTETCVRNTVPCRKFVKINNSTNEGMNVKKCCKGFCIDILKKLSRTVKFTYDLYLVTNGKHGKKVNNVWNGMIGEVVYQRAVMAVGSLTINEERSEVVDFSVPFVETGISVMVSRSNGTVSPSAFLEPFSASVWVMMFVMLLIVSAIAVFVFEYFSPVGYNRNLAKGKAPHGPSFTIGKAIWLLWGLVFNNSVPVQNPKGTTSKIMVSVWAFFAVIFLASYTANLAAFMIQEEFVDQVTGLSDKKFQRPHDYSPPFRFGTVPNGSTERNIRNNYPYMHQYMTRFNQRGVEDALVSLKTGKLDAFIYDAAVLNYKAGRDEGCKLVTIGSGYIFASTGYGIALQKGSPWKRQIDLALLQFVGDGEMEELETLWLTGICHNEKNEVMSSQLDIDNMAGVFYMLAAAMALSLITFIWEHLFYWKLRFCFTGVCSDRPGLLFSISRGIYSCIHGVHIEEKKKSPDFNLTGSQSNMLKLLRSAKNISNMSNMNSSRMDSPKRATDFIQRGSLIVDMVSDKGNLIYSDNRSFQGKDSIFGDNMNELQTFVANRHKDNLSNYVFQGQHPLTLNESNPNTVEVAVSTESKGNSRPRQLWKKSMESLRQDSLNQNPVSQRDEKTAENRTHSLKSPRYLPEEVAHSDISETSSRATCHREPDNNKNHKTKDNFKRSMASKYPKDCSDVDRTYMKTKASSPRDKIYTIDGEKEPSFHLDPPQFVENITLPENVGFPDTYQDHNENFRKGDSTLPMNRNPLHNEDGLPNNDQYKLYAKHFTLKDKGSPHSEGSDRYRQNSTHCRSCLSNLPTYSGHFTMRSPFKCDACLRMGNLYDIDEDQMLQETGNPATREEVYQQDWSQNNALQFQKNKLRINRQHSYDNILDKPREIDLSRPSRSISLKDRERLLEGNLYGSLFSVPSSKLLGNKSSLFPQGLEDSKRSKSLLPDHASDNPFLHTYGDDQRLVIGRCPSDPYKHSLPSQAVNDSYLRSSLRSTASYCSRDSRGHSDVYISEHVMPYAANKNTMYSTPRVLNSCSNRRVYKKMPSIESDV
Protocol: (§1) Nomenclature of NMDA receptor subunits follows [Collingridge et al. (2009)] and [Alexander et al. (2011)]. pSP64T-based plasmid constructs containing cDNA coding for rat GluN1-1a (i.e. the splice variant that lacks exon 5, but contains exons 21 and 22), hereafter termed GluN1 and wild-type rat GluN2A receptor subunits were prepared as described by ([Chen et al., 2005]). The rat GluN2B-containing cDNA expression vector was a gift by Stephen Traynelis (Emory University, Atlanta, GA). cRNA was synthesized as runoff transcripts as previously detailed ([Chen et al., 2005], [2008]; [Erreger et al., 2007]). Fluorescence intensity in ethidium bromide-stained agarose gels was employed to confirm the fidelity and yield of synthesized cRNAs. For recombinant receptor expression, GluN1 and GluN2 cRNAs were mixed at a nominal ratio of 1:1 and diluted with nuclease-free water to 5 ng μl^−1.
(§2) Oocytes (Stage V–VI) were removed from Xenopus laevis that had been killed in accordance with current UK Home Office protocols and defolliculated by initial collagenase treatment, then manually using forceps. 23–37 nl of cRNA mix was injected into oocytes which were subsequently maintained in Barth's solution (composition in mM: NaCl 88, KCl 1, NaHCO3 2.4, MgCl2 0.82, CaCl2 0.77, Tris-Cl 15, adjusted to pH 7.35 with NaOH and supplemented with 50 IU ml^−1 penicillin, 50 μg ml^−1 streptomycin, 50 μg ml^−1 tetracycline) for 24–48 h at 19 °C to allow for receptor expression and then stored at 4 °C until required for electrophysiological measurements.
(§3) Two-electrode voltage-clamp (TEVC) recordings were made using a GeneClamp 500 amplifier (Molecular Devices, Sunnyvale, CA) at room temperature (18–21 °C) from oocytes placed in a bath that was perfused with a solution comprising (in mM): NaCl 115, KCl 2.5, HEPES 10, BaCl2 1.8, EDTA 0.01; pH 7.4 with NaOH. Note EDTA was included to chelate contaminating low nanomolar levels of Zn^2+ that potently block of GluN2A-containing NMDARs in a voltage-independent manner. […] TEVC recordings were performed at −30 or −40 mV. Currents were filtered at 10 Hz and digitized online at 100 Hz, via a Digidata 1200 A/D interface (Molecular Devices, Union City, CA, USA), using WinEDR 3.1.9 software (Strathclyde Electrophysiology Software, Strathclyde University, UK).
The concentration of TCN 201 required to inhibit 50% (IC50) of agonist-evoked responses were determined by fitting data to the equation: I=I[B]∞+((I[B]0−I[B]∞)/(1+([B]/IC50)^nH)), where I is current response, I[B]0 is predicted maximum current in the absence of antagonist, I[B]∞ is the predicted minimum current in the presence of an infinite concentration of antagonist,[B] is the concentration of the antagonist and nH represents the Hill coefficient. To obtain an overall mean IC50 value, data points were normalised to the predicted maximum, pooled and refitted with the equation, with the maximum of each curve being constrained to asymptote to 1 but with the minimum fitted as a free parameter ([Otton et al., 2011]; [Wrighton et al., 2008]). In addition we fitted data points where both the maximum and minimum were constrained (to 1 and 0, respectively). The F ratio was calculated from the following equation: F=(SSR1−SSR2)/(DF1−DF2)/SSR2/DF2, where SSR1 and SSR2 are the sum of squared residuals of the constrained and unconstrained fits respectively and DF1 and DF2 are the degrees of freedom associated with each of the two fits.

GluN1/GluN2A NMDARs [2] = target: T1, GluN1/GluN2A NMDARs; design: method as in McKay et al., 2012; conditions: ref McKay et al., 2012, cited from earlier work
GluN1/GluN2B NMDARs = target: T2, GluN1/GluN2B NMDARs (Rattus norvegicus, UniProt P35439+Q00960); experiment: TEVC recordings of NMDAR currents from Xenopus laevis oocytes expressing GluN1/GluN2B; assay type: cell-based; conditions: TCN 201 10 μM, read-out: percentage inhibition of GluN1/GluN2B NMDAR-mediated currents
T2 construct: expressed in transfected cells; host or cells: Xenopus laevis oocytes injected with cRNA (GluN1:GluN2 1:1)
T2 sequence (Q00960 27-1482, other chains not shown): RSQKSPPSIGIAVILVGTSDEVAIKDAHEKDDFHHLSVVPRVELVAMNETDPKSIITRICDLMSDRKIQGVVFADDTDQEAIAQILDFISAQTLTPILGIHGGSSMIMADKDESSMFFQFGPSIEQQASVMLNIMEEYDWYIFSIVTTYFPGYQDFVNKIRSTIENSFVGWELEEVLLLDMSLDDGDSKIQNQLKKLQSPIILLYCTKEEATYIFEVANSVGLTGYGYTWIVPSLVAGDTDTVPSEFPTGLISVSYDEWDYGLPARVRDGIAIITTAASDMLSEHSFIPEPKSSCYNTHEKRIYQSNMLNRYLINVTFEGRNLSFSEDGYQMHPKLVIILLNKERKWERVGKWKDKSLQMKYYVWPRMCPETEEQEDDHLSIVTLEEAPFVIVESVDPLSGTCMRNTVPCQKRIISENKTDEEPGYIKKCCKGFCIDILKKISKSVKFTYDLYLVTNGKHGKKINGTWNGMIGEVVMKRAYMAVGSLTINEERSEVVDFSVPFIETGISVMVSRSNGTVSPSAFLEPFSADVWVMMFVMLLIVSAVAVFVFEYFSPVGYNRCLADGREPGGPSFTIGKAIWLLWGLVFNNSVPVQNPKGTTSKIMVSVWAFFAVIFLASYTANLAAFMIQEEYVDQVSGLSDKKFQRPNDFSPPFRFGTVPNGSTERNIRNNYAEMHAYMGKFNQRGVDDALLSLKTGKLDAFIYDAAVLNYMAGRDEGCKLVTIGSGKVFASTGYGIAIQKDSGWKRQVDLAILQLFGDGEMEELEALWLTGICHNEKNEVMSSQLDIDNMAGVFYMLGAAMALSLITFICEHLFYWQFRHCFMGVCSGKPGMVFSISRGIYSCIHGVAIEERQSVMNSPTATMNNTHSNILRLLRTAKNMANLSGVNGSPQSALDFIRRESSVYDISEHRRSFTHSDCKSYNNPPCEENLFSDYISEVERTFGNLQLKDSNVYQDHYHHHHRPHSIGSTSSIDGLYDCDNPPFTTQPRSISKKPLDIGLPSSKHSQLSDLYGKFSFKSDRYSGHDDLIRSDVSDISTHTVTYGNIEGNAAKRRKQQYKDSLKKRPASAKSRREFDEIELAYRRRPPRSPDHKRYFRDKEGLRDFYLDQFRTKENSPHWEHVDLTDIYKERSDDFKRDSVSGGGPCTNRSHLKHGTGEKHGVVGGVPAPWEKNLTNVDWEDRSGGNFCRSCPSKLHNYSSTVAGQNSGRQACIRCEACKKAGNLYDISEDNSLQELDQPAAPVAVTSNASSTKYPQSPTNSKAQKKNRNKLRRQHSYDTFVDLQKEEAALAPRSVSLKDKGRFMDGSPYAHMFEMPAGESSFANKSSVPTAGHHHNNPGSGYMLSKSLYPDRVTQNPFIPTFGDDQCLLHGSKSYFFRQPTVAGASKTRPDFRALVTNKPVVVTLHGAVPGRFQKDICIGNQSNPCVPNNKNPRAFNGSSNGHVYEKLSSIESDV
Protocol: as §1, §2
as §3, with “Currents were filtered at 10 Hz and digitized online at 100 Hz, via a Digidata 1200 A/D interface (Molecular Devices, Union City, CA, USA), using WinEDR 3.1.9 software (Strathclyde Electrophysiology Software, Strathclyde University, UK).” left out

GluN1/GluN2A NMDARs [3] = target: T1, GluN1/GluN2A NMDARs; experiment: Schild analysis of antagonism at GluN1/GluN2A NMDARs (TEVC, oocytes); assay type: cell-based; conditions: for dose ratio (r) for shift in glycine potency: glutamate 30 μM; for Schild plot slope (free linear regression fit): 0.3, 1 and 3 μM TCN 201 data points
Protocol: as §1, §2, §3
TCN 201 antagonism at the GluN1/GluN2A NMDAR was examined by the Schild method ([Arunlakshana and Schild, 1959]; [Wyllie and Chen, 2007]). Dose-ratios (r) were defined as the ratio of the concentration of agonist, in the presence of a fixed concentration of antagonist, required to evoke the same response that was obtained in the absence of the antagonist. Dose-ratios from individual oocytes were determined at low agonist concentrations by constructing a partial concentration-response curve generated in the absence of antagonist and in the presence of a series of increasing antagonist concentrations. Due to the lack of sufficient perfusion lines, the dose-ratio estimate for the higher concentrations of TCN 201 (3 and 10 μM) was determined in a separate series of experiments from those carried out for the lower two concentrations (0.3 and 1 μM). Each series of two-point concentration-response curves were plotted on a log–log scale and the slope of the line used to fit the initial (antagonist-free) two-point concentration-response curve was used to fit the remaining curves. These parallel fits were used to calculate an overall mean r value for each antagonist concentration [B], which were then used to construct a Schild plot. On a log–log scale the gradient of the line used to fit such data is predicted by the Schild equation to be unity for a competitive antagonist. […] For ‘allosteric’ antagonism at equilibrium, the Schild plot deviates from unity at higher concentrations of antagonist ([Christopoulos and Kenakin, 2002]). […]

[4] = tested on: NMDAR-mediated currents in rat cortical neurones; experiment: Whole-cell NMDA-evoked currents in cultured cortical neurones; assay type: cell-based; conditions: TCN 201 10 μM after ifenprodil, NMDA 50 μM, glycine 3 μM
[5] = Solubility in external recording solutions; assay type: physicochemical; conditions: external recording solutions for TEVC or whole-cell patch-clamp; from 3 mM DMSO stock
Protocol: Glutamate, glycine and D-serine were purchased from Sigma–Aldrich (Poole, UK). TCN 201, TCN 213, NMDA, ifenprodil, picrotoxin and tetrodotoxin were purchased from Tocris Bioscience (Bristol, UK). Stock solutions (3 mM) of TCN 201 were made by dissolving the antagonist in DMSO.

[6] = glutamate 30 μM, D-serine 10 μM
[7] = glutamate 30 μM, D-serine 30 μM

O=C(CSc1nnc(NCc2ccccc2)s1)NCC1CCCCC1 [TCN 213, N-(cyclohexylmethyl)-2-[{5-[(phenylmethyl)amino]-1,3,4-thiadiazol-2-yl}thio]acetamide]
inhibition of GluN1/GluN2A NMDAR-mediated currents (GluN1/GluN2A NMDARs [1]; glutamate 30 μM, glycine 10 μM): 44.0 ± 2.2% | inhibition of GluN1/GluN2A NMDAR-mediated currents (GluN1/GluN2A NMDARs [1]; glutamate 30 μM, glycine 30 μM): 17.3 ± 1.4% | pA2 (GluN1/GluN2A NMDARs [2]; GluN1/GluN2A NMDARs): 5.69 | Kb (GluN1/GluN2A NMDARs [2]; Schild analysis, agonist glycine, read-out: equilibrium constant (KB)): 2000 nM

O=C(NNC(=O)c1ccc(CNS(=O)(=O)c2ccc(F)c(Cl)c2)cc1)c1ccccc1 [TCN 201, 3-chloro-4-fluoro-N-[4-[[2-(phenylcarbonyl)hydrazino]carbonyl]benzyl]benzenesulphonamide]
inhibition at 10 µM (GluN1/GluN2A NMDARs [1]; Fig. 2b, read-out: inhibition of glutamate/glycine-evoked GluN1/GluN2A NMDAR-mediated currents): 91.2 ± 1.1% | inhibition at 10 µM (GluN1/GluN2A NMDARs [1]; data not shown, read-out: inhibition of NMDA/glycine-evoked GluN1/GluN2A NMDAR-mediated currents): 69.9 ± 4.1% | inhibition at 10 µM (GluN1/GluN2A NMDARs [1]; glutamate 3 μM, glycine 30 μM, read-out: percentage inhibition of GluN1/GluN2A NMDAR-mediated currents): 54.5 ± 3.4% | inhibition at 10 µM (GluN1/GluN2A NMDARs [1]; glutamate 10 μM, glycine 30 μM, read-out: percentage inhibition of GluN1/GluN2A NMDAR-mediated currents): 52.2 ± 3.7% | inhibition at 10 µM (GluN1/GluN2A NMDARs [1]; glutamate 30 μM, glycine 30 μM (glutamate-dependency series), read-out: percentage inhibition of GluN1/GluN2A NMDAR-mediated currents): 45.8 ± 2.8% | inhibition of GluN1/GluN2A NMDAR-mediated currents (GluN1/GluN2A NMDARs [1]; glutamate 30 μM, glycine 10 μM): 82.4 ± 1.1% | inhibition of GluN1/GluN2A NMDAR-mediated currents (GluN1/GluN2A NMDARs [1]; glutamate 30 μM, glycine 30 μM): 50.7 ± 1.1% | Hill slope (GluN1/GluN2A NMDARs [1]; glutamate 30 μM, D-serine 3 μM): 1.57 ± 0.078 | IC50 (GluN1/GluN2A NMDARs [1]; glutamate 30 μM, D-serine 3 μM): 326 ± 18 nM | Hill slope (GluN1/GluN2A NMDARs [1]; [6]): 1.33 ± 0.21 | IC50 (GluN1/GluN2A NMDARs [1]; [6]): 816 ± 231 nM | Hill slope (GluN1/GluN2A NMDARs [1]; [7]): 1.17 ± 0.07 | IC50 (GluN1/GluN2A NMDARs [1]; [7]): 1920 ± 250 nM | Hill slope (GluN1/GluN2A NMDARs [1]; glutamate 30 μM, glycine 3 μM): 1.42 ± 0.061 | IC50 (GluN1/GluN2A NMDARs [1]; glutamate 30 μM, glycine 3 μM): 446 ± 26 nM | Hill slope (GluN1/GluN2A NMDARs [1]; glutamate 30 μM, glycine 10 μM): 1.49 ± 0.21 | IC50 (GluN1/GluN2A NMDARs [1]; glutamate 30 μM, glycine 10 μM): 746 ± 133 nM | Hill slope (GluN1/GluN2A NMDARs [1]; glutamate 30 μM, glycine 30 μM): 1.17 ± 0.11 | IC50 (GluN1/GluN2A NMDARs [1]; glutamate 30 μM, glycine 30 μM): 3890 ± 1060 nM | predicted maximal inhibition (GluN1/GluN2A NMDARs [1]; saturating glycine (or D-serine), from fits with unconstrained minima): around 40% | inhibition at 10 µM (GluN1/GluN2B NMDARs; glycine 3 μM): 1.8 ± 0.6% | inhibition at 10 µM (GluN1/GluN2B NMDARs; glycine 10 μM): 3.1 ± 1% | inhibition at 10 µM (GluN1/GluN2B NMDARs; glycine 30 μM): 3.1 ± 0.8% | dose ratio (r) for shift in glycine potency (GluN1/GluN2A NMDARs [3]; 0.3 μM TCN 201): 5.19 ± 0.4 | dose ratio (r) for shift in glycine potency (GluN1/GluN2A NMDARs [3]; 1 μM TCN 201): 16.7 ± 2.1 | dose ratio (r) for shift in glycine potency (GluN1/GluN2A NMDARs [3]; 3 μM TCN 201): 41.1 ± 1.5 | dose ratio (r) for shift in glycine potency (GluN1/GluN2A NMDARs [3]; 10 μM TCN 201): 49.0 ± 2.0 | pA2 (GluN1/GluN2A NMDARs [3]; GluN1/GluN2A NMDARs, from Schild plot intercept): 7.15 | Schild plot slope (free linear regression fit) (GluN1/GluN2A NMDARs [3]; agonist D-serine): 0.87 | allosteric constant (α) (GluN1/GluN2A NMDARs [3]; agonist D-serine, modified equation): 0.0106 | Kb (GluN1/GluN2A NMDARs [3]; agonist D-serine, modified equation, all data points, read-out: allosteric KB^# (allosteric antagonist dissociation constant)): 66 nM | Kb (GluN1/GluN2A NMDARs [3]; agonist D-serine, slope constrained to unity, first three data points, read-out: equilibrium constant (KB)): 81 nM | maximum shift in the dose ratio (= 1/α) (GluN1/GluN2A NMDARs [3]; agonist glycine): around 80 fold | Schild plot slope (free linear regression fit) (GluN1/GluN2A NMDARs [3]; agonist glycine): 0.98 | TCN 201 concentration needed to achieve the maximum dose-ratio shift (GluN1/GluN2A NMDARs [3]; agonist glycine, above limit of solubility): approximately 275 μM | allosteric constant (α) (GluN1/GluN2A NMDARs [3]; agonist glycine, modified equation): 0.0123 | Kb (GluN1/GluN2A NMDARs [3]; agonist glycine, modified equation, all data points, read-out: allosteric KB^# (allosteric antagonist dissociation constant)): 56 nM | Kb (GluN1/GluN2A NMDARs [3]; agonist glycine, slope constrained to unity, first three data points, read-out: equilibrium constant (KB)): 70 nM | potency relative to TCN 213 at GluN1/GluN2A NMDARs (GluN1/GluN2A NMDARs [3]; comparison of pA2 / equilibrium constants): around 30 times | maximum shift in the dose ratio (= 1/α) (GluN1/GluN2A NMDARs [3]; glycine or D-serine as GluN1-site agonist): 80–90 fold | block of NMDAR-mediated current (percentage of the original current magnitude) ([4]; DIV 9–10 neurones): 5 ± 2% | block of NMDAR-mediated current (percentage of the original current magnitude) ([4]; DIV 15–18 neurones): 16 ± 3% | block of NMDAR-mediated current (percentage of the original current magnitude) ([4]; GluN2A-transfected DIV 9–10 neurones): 47 ± 4% | maximum usable concentration (noticeable precipitate at higher concentrations) [5]: 10 µM
